Measured values: ChEMBL document CHEMBL4251729, “Novel Triterpenone for Treatment of Viral Diseases-HIV Inhibitors” (ACS Med Chem Lett, 2018)

Tests used:
[1] = test system: Human immunodeficiency virus 1; assay: Antiviral activity against HIV1 92HT599 infected in human MT2 cells assessed as reduction in p24 production in presence of 40% serum by ELISA; format: functional, organism-based; conditions: Human immunodeficiency virus 1, 92HT599, MT2
[2] = test system: Human immunodeficiency virus 1; assay: Antiviral activity against HIV1 92HT599 infected in human MT2 cells assessed as reduction in p24 production in absence of serum by ELISA; format: functional, organism-based
[3] = Human immunodeficiency virus 1, 92HT599, MT2

| IC50 [1] | IC50 [2, 3] | IC50 [2] | Structure (SMILES) |
| --- | --- | --- | --- |
| – | 10 to 50 nM | – | CC(C)C1=C2[C@H]3CC[C@@H]4[C@@]5(C)CC[C@H](OC(=O)[C@H]6C[C@@H](C(=O)O)C6(C)C)C(C)(C)[C@@H]5CC[C@@]4(C)[C@]3(C)CC[C@@]2(c2ncc(-c3ccc(Cl)cc3)n2CCN(C)C)CC1=O [listing 2 of 2 here] |
| < 10 nM | < 10 nM | – | CC(C)C1=C2[C@H]3CC[C@@H]4[C@@]5(C)CC[C@H](OC(=O)[C@H]6C[C@@H](C(=O)O)C6(C)C)C(C)(C)[C@@H]5CC[C@@]4(C)[C@]3(C)CC[C@@]2(c2nnc(-c3ccc(Cl)cc3)o2)CC1=O |

The next lines start with the compound.

| Structure (SMILES) | IC50 [1] | IC50 [2, 3] | IC50 [2] |
| --- | --- | --- | --- |
| CC(C)C1=C2[C@H]3CC[C@@H]4[C@@]5(C)CC[C@H](OC(=O)[C@H]6C[C@@H](C(=O)O)C6(C)C)C(C)(C)[C@@H]5CC[C@@]4(C)[C@]3(C)CC[C@@]2(c2ncc(-c3ccc(Cl)cc3)[nH]2)CC1=O | 10 to 50 nM | < 10 nM | – |
| CC(C)C1=C2[C@H]3CC[C@@H]4[C@@]5(C)CC[C@H](OC(=O)[C@H]6C[C@@H](C(=O)O)C6(C)C)C(C)(C)[C@@H]5CC[C@@]4(C)[C@]3(C)CC[C@@]2(c2ncc(-c3ccc(F)cc3)[nH]2)CC1=O | > 50 nM | < 10 nM | – |
| CC(C)C1=C2[C@H]3CC[C@@H]4[C@@]5(C)CC[C@H](OC(=O)[C@H]6C[C@@H](C(=O)O)C6(C)C)C(C)(C)[C@@H]5CC[C@@]4(C)[C@]3(C)CC[C@@]2(c2ncc(-c3ccccc3)[nH]2)CC1=O | 10 to 50 nM | < 10 nM | – |
| CC(C)C1=C2[C@H]3CC[C@@H]4[C@@]5(C)CC[C@H](OC(=O)[C@H]6C[C@@H](C(=O)O)C6(C)C)C(C)(C)[C@@H]5CC[C@@]4(C)[C@]3(C)CC[C@@]2(c2ncc(-c3ccc(Cl)cc3)n2CCN(C)C)CC1=O [listing 1 of 2 here] | > 50 nM | – | < 10 nM |
